Measurements as given in patent US9447015B1, “(S)-2′-vinyl-abscisic acid derivatives” (Valent BioSciences Corporation, priority 2015, dated 2016).
Entries after “also recorded” stand apart in the source; their conditions may differ.

Columns and labels:
[1] = tested on: grapevines, Seedless 'Red Flame' (bud break and shoot development); test: Field study for breaking grape vine dormancy; format: in vivo; conditions: for Percent of Buds Broken / Shoot Length/Spur (total length of all shoots present on spur): 1% solution applied to dormant grape spurs
Protocol: A small plot field study to test the effect of experimental compounds on release of, or breaking grape vine dormancy was conducted near Thermal, Calif. in January, 2016. The grapevines, Seedless ‘Red Flame’, had been pruned to 2-4 node spurs (shortened canes) prior to treatment. Aqueous treatment solutions were prepared with a test compound, an appropriate buffering agent, and a silicone-based nonionic surfactant at 0.25% (v/v). Each spur was thoroughly wetted with a 1% (w/v) solution, which was applied with a foam brush. Dormancy breaking was assessed periodically by examining bud break (initiation of growth) and subsequent shoot development. […] Both a control treatment (aqueous solution with surfactant) and a positive control treatment (the commercial standard for bud breaking, hydrogen cyanamide) were included in this study for comparison.

[2] = tested on: Arabidopsis thaliana seed germination; test: Arabidopsis seed germination assay (promotion of germination in the presence of (S)-ABA); format: in vivo
Protocol: To determine whether the (S)-ABA derivatives of the present invention were effective antagonists, germination assays were performed with the model plant Arabidopsis thaliana. If the compounds are found to be antagonists, they may be useful to counter any undesirable side effects of (S)-ABA.
Arabidopsis seed was sterilized by shaking for five minutes in 200 proof ethanol, followed by shaking for five minutes in a 10% bleach solution. The seeds were then washed five times in sterile, distilled, de-ionized water and suspended in 0.1% phytoagar. The tubes containing the seeds were wrapped in aluminum foil and stratified at 4° C. for two days.
All compounds were tested at a concentration of 30 ppm in the presence or absence of 0.3 ppm (S)-ABA, in 24-well plates. For each compound, a 1000 ppm stock solution was prepared in distilled, deionized water containing 5% DMSO. The stock test solution (15 μL) was added to each well, plus or minus 1.5 μL of 100 ppm (S)-ABA in 5% DMSO. Appropriate amounts of distilled, de-ionized water was added to equalize volumes, and 450 μL of ½×Murashige and Skoog media containing 1.2% Bactoagar was then added to each well (final DMSO concentration was 0.5%). When the media solidified, ten to 15 sterile stratified Arabidopsis seeds were distributed into each well using a repeat pipettor. The plates were sealed with surgical tape and placed in a growth chamber running diurnal cycles of 12 hours of light at 24° C. and 12 hours of darkness at 19° C. The plates were scanned on days 3 through 14, and scored on day 14. The (S)-2′-vinyl-substituted ABA derivatives were scored on ability to promote germination in the presence of (S)-ABA. The results are summarized below in “Table 1: Arabidopsis seed germination promotion activity of 2′-vinyl-(S)-ABA derivatives.”

| Compound | Percent of Buds Broken ([1]; 31 days post-treatment) | Percent of Buds Broken ([1]; 48 days post-treatment) | Shoot Length/Spur (total length of all shoots present on spur) ([1]; 48 days post-treatment) | Shoot Length/Spur (total length of all shoots present on spur) ([1]; 48 days post-treatment, listed as compound 23) | effect on bud break / breaking of woody plant dormancy ([1]; application to dormant grape spurs, 1% solution) | Rating: Arabidopsis seed germination promotion activity ([2]; 30 ppm compound in the presence of 0.3 ppm (S)-ABA, scored on day 14) | antagonist nature compared to (S)-ABA ([2]; seed germination assay, 30 ppm with 0.3 ppm (S)-ABA) |
| --- | --- | --- | --- | --- | --- | --- | --- |
| CC(=C/C(=O)O)/C=C/[C@@]1(O)C(/C=C/c2ccc(F)c(F)c2)=CC(=O)CC1(C)C [Compound 23] | 16.7% | 76.7% | 22.2 cm | intermediate between the spurs treated with the control and hydrogen cyanamide | significantly increased bud break | +++ (Seeds germinated 8 to 10 days earlier than those treated with 0.3 ppm of (S)-ABA alone.) | antagonists of (S)-ABA; also recorded: one of the most potent (S)-ABA antagonist |
| N#CN [Hydrogen cyanamide, hydrogen cyanamide, reference compound] | 21.0% | 58.8% | 25.2 cm | – | – | – | – |
